# Values joined by “and” are separate entries in the source; they are usually repeats but may differ in a detail not shown here. Equal entries are not always repeated. “Also recorded” adds a separate entry of the source.
# Key:
# [1] = molecular target: TrkA (Homo sapiens, UniProt P04629); test: KdELECT Kd measurement (KINOMEscan), TrkA; format: binding
# Protocol: (§1) Kd measurements were done via the KdELECT product service from DiscoverX Corporation (Freemont, Calif., USA) which also employs the KINOMEscan technology. Here, inhibitor binding constants (Kd values) are calculated from duplicate 11-point dose-response curves.
# [2] = molecular target: TrkA; test: KdELECT Kd measurement (KINOMEscan), TrkA; format: binding
# Protocol: as §1
# [3] = tested on: panel of 97 kinases; test: Selectivity profiling, scanEDGE kinase panel (KINOMEscan); format: binding; settings: 100 nM, cut-off <35% ctrl
# Protocol: Selectivity profiling was done over a panel of 97 kinases at 100 nM concentration (scanEDGE assay panel from Discover X, which also uses the KINOMEscan technology, whereat KIT(D816V) and KIT (V559D, T6701) were replaced by TrkB and TrkC). […] The employed profiling panel consisted of the following kinases: ABL1(T3151)-phosphorylated, ABL1-nonphosphorylated, ABL1-phosphorylated, ACVR1B, ADCK3, AKT1, AKT2, ALK, AURKA, AURKB, AXL, BMPR2, BRAF, BRAF (V600E), BTK, CDK11, CDK2, CDK3, CDK7, CDK9, CHEK1, CSF1R, CSNK1D, CSNK1G2, DCAMKL1, DYRK1B, EGFR, EGFR (L858R), EPHA2, ERBB2, ERBB4, ERK1, FAK, FGFR2, FGFR3, FLT3, GSK3B, IGF1R, IKK-alpha, IKK-beta, INSR, JAK2 (JH1domain-catalytic), JAK3 (JH1domain-catalytic), JNK1, JNK2, JNK3, KIT, LKB1, MAP3K4, MAPKAPK2, MARK3, MEK1, MEK2, MET, MKNK1, MKNK2, MLK1, p38-alpha, p38-beta, PAK1, PAK2, PAK4, PCTK1, PDGFRA, PDGFRB, PDPK1, PIK3C2B, PIK3CA, PIK3CG, PIM1, PIM2, PIM3, PKAC-alpha, PLK1, PLK3, PLK4, PRKCE, RAF1, RET, RIOK2, ROCK2, RSK2 (Kin. Dom. 1-N-terminal), SNARK, SRC, SRPK3, TGFBR1, TIE2, TRKA, TRKB, TRKC, TSSK1B, TYK2 (JH1domain-catalytic), ULK2, VEGFR2, YANK3, ZAP70
# [4] = Plasma concentration of compound a1 after i.v. injection in mice (LC-MS-MS); format: in vivo, C57Bl/6 mice; settings: for Plasma Conc. of Compound a1: 1 hour, single animal; for concentration at 1 h: female, C57Bl/6, mouse, plasma, intravenous
# Protocol: Compound a1 was synthesized under contract by the company Enamine Ltd. according to Example 1. Dimethylsulfoxide (DMSO) from J. T. Baker (Germany), Cremophor EL (Polyoxyethyleneglycerol triricinoleate 35 castor oil) from BASF (Germany), and Saline solution 0.9% from B. Braun (Germany) were used in this study. Two types of formulations were prepared: a formulation with a high dose of compound a1 (9 mM) and a formulation with a low dose of compound a1 (1.8 mM); c.f. Tables 5 and 6. First, a 100 mM stock solution of compound a1 in DMSO was prepared by dissolving 18.46 mg of compound a1 (molecular weight of 461.56 g/mol) in 400 μl DMSO at room temperature. The formulation with the high dose of a1 was prepared using 9% a1-DMSO stock solution, 10% Cremophor EL, and 81% saline. The formulation with the low dose of a1 contained 1.8% a1-DMSO stock solution, 5% Cremophor EL, and 93.2% saline; c.f. FIG. 2.
# Experiments were carried out in accordance with the EU Directive 86/609/EEC on the protection of animals used for scientific purposes. Female adult C57Bl/6 mice (6-8 weeks old, body weight 20 g) were treated with 5 mg/kg (low dose) and 25 mg/kg (high dose) compound a1 or with vehicle (formulations without compound a1) or with saline by intravenous (i.v.) injections for 1 hour using a 1 ml syringe (29-G, Terumo); c.f. Table 6. After injection, the mice were returned to their home cages, and after 1 hour, the mice were anaesthetized with isoflurane. Terminal blood samples were collected using a 1 ml syringe (20-G needle, B. Braun). The blood was immediately transferred into a 1.3 ml heparin-coated tube (Sarstedt). Plasma was collected by centrifugation at 1500 g for 15 minutes. The supernatant was placed in a 1.5 ml tube on dry ice and stored at −20° C.
# The quantification of compound a1 in murine plasma samples was performed via liquid chromatography tandem mass spectrometry (LC-MS-MS).
# Chain of TrkA (Homo sapiens, UniProt P04629) (P04629 33-796): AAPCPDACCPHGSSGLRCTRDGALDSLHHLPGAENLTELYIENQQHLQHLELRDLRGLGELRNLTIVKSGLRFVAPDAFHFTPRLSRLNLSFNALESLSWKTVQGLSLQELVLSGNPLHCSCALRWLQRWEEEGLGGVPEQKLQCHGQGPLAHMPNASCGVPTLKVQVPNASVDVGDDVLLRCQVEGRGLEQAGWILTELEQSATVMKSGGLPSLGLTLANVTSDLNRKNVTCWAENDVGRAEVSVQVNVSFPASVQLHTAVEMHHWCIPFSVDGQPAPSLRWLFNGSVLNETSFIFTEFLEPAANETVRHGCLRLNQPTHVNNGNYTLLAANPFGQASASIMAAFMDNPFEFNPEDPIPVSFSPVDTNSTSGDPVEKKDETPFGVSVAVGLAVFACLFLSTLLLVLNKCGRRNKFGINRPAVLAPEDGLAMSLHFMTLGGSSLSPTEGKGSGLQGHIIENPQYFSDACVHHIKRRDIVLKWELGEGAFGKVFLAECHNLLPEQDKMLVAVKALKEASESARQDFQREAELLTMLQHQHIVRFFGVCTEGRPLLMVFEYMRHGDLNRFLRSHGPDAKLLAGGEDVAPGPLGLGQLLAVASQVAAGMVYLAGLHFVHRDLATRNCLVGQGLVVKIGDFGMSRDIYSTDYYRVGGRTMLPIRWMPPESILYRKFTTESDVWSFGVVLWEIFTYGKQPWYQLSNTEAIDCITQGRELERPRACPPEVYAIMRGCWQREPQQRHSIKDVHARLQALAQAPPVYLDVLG
structure (smiles),measurement,setting,value
"CN1CCN(c2cc(Nc3cc(-c4cccc(F)c4)[nH]n3)nc(Sc3ccccc3)n2)CC1 [a1, N-[5-(3-fluorophenyl)-1H-pyrazol-3-yl]-6-(4-methylpiperazin-1-yl)-2-(phenylsulfanyl)pyrimidin-4-amine]",TrkA [pKd],[1],8.6
same,Kd,[1]; duplicate 11-point dose-response curves,2.6 nM
same,ΔpKd,[2]; TrkA pKd versus AurA pKd,3.3
same,improved selectivity against off-target AurA,[2]; TrkA versus AurA,"10,000 fold"
same,# Hits,[3]; N = 92 non-mutant kinases,7
same,List of inhibited kinases,[3],"TrkA, TrkB, TrkC, FLT3, KIT,; also recorded: PDGFRb, RET"
same,Selectivity Score,[3]; inhibited kinases/tested kinases,0.08 and 0.076
same,Plasma Conc. of Compound a1,"[4]; a1_high formulation, 25 mg/kg i.v., 25 mg/kg",805 nM and 920 nM
same,Plasma Conc. of Compound a1,"[4]; a1_low formulation, 5 mg/kg i.v., 5 mg/kg",272 nM and 407 nM
same,concentration at 1 h,[4]; 5 mg/kg (low dose) i.v.,340 nM
same,concentration at 1 h,[4]; 25 mg/kg (high dose) i.v.,863 nM

# Reference: patent US20200399250A1, “Pyrimidine Derivatives as Tropomyosin Receptor Kinase A (TRKA) Inhibitors” (BIOMED X GMBH, priority 2017, published 2020)
